Source: patent US20240239750A1, “PHARMACEUTICAL PREPARATION” (Aerie Pharmaceuticals, Inc., priority 2021, published 2024)
Where “and” joins values, the source holds several entries; their conditions need not be identical. Identical values can stand only once.

How the values were obtained:
Assay type in all cases: physicochemical
[1] = TG/DSC thermal analysis; conditions: for Enthalpy / Onset Temperature / Signal Temperature: TG/DSC signal of Compound 1 mono-tosylate solid form; for onset of thermal decomposition: TG/DSC, 10° C./min
Description: (§1) Thermogravimetric Analysis/Differential Scanning Calorimetry (TGA/DSC): Approximately, 5-10 mg of material was added into a pre-tared open aluminum pan and loaded into a TA Instruments Discovery SDT 650 Auto—Simultaneous DSC and held at room temperature. The sample was then heated at a rate of 10° C./min from 30° C. to 350° C. during which time the change in sample weight was recorded along with the heat flow response (DSC). Nitrogen was used as the sample purge gas, at a flow rate of 200 cm^3/min.
as §1, with “Thermogravimetric/Differential Thermal Analysis (TG/DTA):” for “Thermogravimetric Analysis/Differential Scanning Calorimetry (TGA/DSC):”, “cm^3/min. […]” for “cm^3/min.”

[2] = Polymorph stability study (competitive slurrying)
Description: To prepare solutions saturated with Compound 1 mono-tosylate for competitive slurrying, 2×100 mg (0.20 mmol) amorphous Compound 1 mono-tosylate was weighed into 2×4 mL vials. To each vial, 500 μL of ethanol was added and the vials were manually shaken for a few seconds. Complete dissolution was noted. A further about 20 mg of amorphous Compound 1 mono-tosylate was added to each vial and the vials were agitated for about 3 hours: one vial at ambient temperature and one vial at 60° C. After about 3 hours, both were solutions. More amorphous Compound 1 mono-tosylate (about 30 mg) was added to each vial and they were shaken at their respective temperatures again for about another hour. Both appeared to be slurries. To remove the excess solids, the slurries were filtered centrifugally and the mother liquors each placed into separate, clean vials. […] After 48 hours, the solids were recovered via centrifugal filtration and analyzed by XRPD. The XRPD plate containing the solids was then dried at 40° C. for 2 hours and re-analyzed.
To prepare a solution saturated with amorphous Compound 1 mono-tosylate for competitive slurrying, 50 mg (0.10 mmol) of amorphous Compound 1 mono-tosylate was weighed into a 4 mL vial. […] After 72 hours, the solids were recovered via centrifugal filtration and analyzed by XRPD.

[3] = Drying of solids and re-analysis by XRPD (form conversion)
Description: Any new solids which produced patterns by XRPD were dried at 40° C. for 24 hours before being analyzed again. Potential New Patterns were also analyzed by ^1H NMR, PLM and TG/DSC.
To prepare crystalline forms 1 and 4 of Compound 1 mono-tosylate, 2×500 mg (1.01 mmol) of amorphous Compound 1 mono-tosylate was placed into 20 ml vials. To each of these vials, 12 ml of solvent (dichloromethane for crystalline form 1 and tetrahydrofuran for crystalline form 4) was added to prepare slurries. Volumes/mass used were a direct scale-up from the primary screen discussed above. The slurries were thermally cycled (with agitation) between ambient temperature and 40° C. (4-hour cycles at each condition) for 72 hours. Post-thermal cycling, an aliquot of solid was removed from each vial using a micro-spatula and analyzed by XRPD to confirm that the desired form was produced. The remainder of each slurry was then filtered by Buchner filtration. The solids were dried on the filter bed for no longer than 1 minute before being transferred to pre-weighed 20 ml vials. The solids were then dried under vacuum at ambient temperature for 2 hours. Another aliquot of each solid was analyzed by XRPD post-drying. […] As such, the solids were transferred to an oven at 40° C. (ambient pressure) and subsequently dried for approximately 18 hours. […] Crystalline form 1 yield: 86.1%. Crystalline form 4 yield: 84.2%.

[4] = 7 day stability study of solid forms (XRPD, HPLC); conditions: stored 7 days; 40° C./75% RH (open vial) according to b80 and FIG. 14 legend
Description: Crystalline form 5 of Compound 1 mono-tosylate was obtained during a 7 day stability study for crystalline forms 1 and 4. In the study, 3×20 mg (0.04 mmol) of crystalline forms 1 and 4, and amorphous Compound 1 mono-tosylate, were individually weighted into 1.5 mL vials and stored under the following conditions for 7 days: • (i) 40° C./75% relative humidity (RH) (open vial); • (ii) 80° C./ambient humidity (sealed vial); and • (iii) Ambient conditions (open vial).
After 7 days, any remaining solids recovered were analyzed by XRPD to assess form purity and HPLC changes in chemical purity. […] More crystalline form 5 was prepared by storing 100 mg of crystalline form 4 […] for approximately 4 days.

[5] = listed as Amorphous, mono-tosylate salt
[6] = listed as Form 6, mono-tosylate salt

Cc1ccc(S(=O)(=O)O)cc1.NC[C@@H](C(=O)Nc1ccc2cnccc2c1)c1ccc(CO)cc1 [amorphous Compound 1 mono-tosylate, alpha-(aminomethyl)-4-(hydroxymethyl)-N-6-isoquinolinyl-(S)-benzeneacetamide mono-tosylate salt]
Enthalpy [1, 5]: 94.1 J/g
Onset Temperature [1, 5]: 184.0 °C
Signal Temperature [1, 5]: 202.1 °C
onset of thermal decomposition ([1]; listed as Amorphous Compound 1 Mono-Tosylate, mono-tosylate salt): event associated with decomposition observed (onset 184° C.)
onset of thermal decomposition ([1]; listed as amorphous Compound 1, mono-tosylate salt): 184 °C
onset of thermal decomposition ([1]; listed as amorphous material, mono-tosylate salt): about 184 °C

Cc1ccc(S(=O)(=O)O)cc1.NC[C@@H](C(=O)Nc1ccc2cnccc2c1)c1ccc(CO)cc1 [crystalline form 1, alpha-(aminomethyl)-4-(hydroxymethyl)-N-6-isoquinolinyl-(S)-benzeneacetamide mono-tosylate salt]
form recovered (XRPD) after competitive slurrying ([2]; forms 1, 4 and 5 together in saturated ethanol, 48 hours, ambient temperature and 60° C.): New crystalline form 6 was observed
onset of thermal decomposition ([1]; mono-tosylate salt): 189 °C

Cc1ccc(S(=O)(=O)O)cc1.NC[C@@H](C(=O)Nc1ccc2cnccc2c1)c1ccc(CO)cc1 [crystalline form 3, alpha-(aminomethyl)-4-(hydroxymethyl)-N-6-isoquinolinyl-(S)-benzeneacetamide mono-tosylate salt]
form conversion on drying ([3]; drying at 40° C. for approximately 24 hours): convert to crystalline form 4
form conversion on drying ([3]; oven at 40° C. (ambient pressure), approximately 18 hours): converted to crystalline form 4
form after drying ([3]; under vacuum at ambient temperature for 2 hours): crystalline form 3 remained also

Cc1ccc(S(=O)(=O)O)cc1.NC[C@@H](C(=O)Nc1ccc2cnccc2c1)c1ccc(CO)cc1 [crystalline form 4, alpha-(aminomethyl)-4-(hydroxymethyl)-N-6-isoquinolinyl-(S)-benzeneacetamide mono-tosylate salt]
Enthalpy ([1]; listed as Form 4, mono-tosylate salt): 148.3 J/g and 126.6 J/g
crystalline form found by XRPD after 7 day stability study [4]: converted into a new crystalline form: crystalline form 5

Cc1ccc(S(=O)(=O)O)cc1.NC[C@@H](C(=O)Nc1ccc2cnccc2c1)c1ccc(CO)cc1 [crystalline form 6, alpha-(aminomethyl)-4-(hydroxymethyl)-N-6-isoquinolinyl-(S)-benzeneacetamide mono-tosylate salt]
form after drying of the recovered solids ([2]; dried at 40° C. for 2 hours): retained on drying
Enthalpy [1, 6]: 165.0 J/g
Onset Temperature [1, 6]: 196.2 °C
Signal Temperature [1, 6]: 201.5 °C
stability of the form (conclusion from thermal and NMR analyses) ([1]; no loss in mass on heating prior to melting/decomposition): stable anhydrous form
